From PubChem BioAssay AID1963428 (Molecular Pharmacology Branch, DTP, NCI, 2024)

Test system: 171881-019-R-J1-PDC complex spheroid growth, % test/control
Experiment: Anticancer human tumor 171881-019-R-J1-PDC patient-derived invasive breast carcinoma cell line growth inhibition [Asc]
Settings: for IC50: curve of first compound; for viability, T/C: stronger effect = lower value
Procedure, shortened: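 Complex solid-tumor spheroids incorporating human endothelial and mesenchymal stem cells received single agents or combinations over half-log dilution ranges anchored to clinical Cmax.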
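Wherever viability, T/C is given: spheroids exposed to compounds for 7 days.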

CCN1C(C(=O)NC23CCC(C(=O)O)(CC2)CC3)C(c2cccc(Cl)c2F)C2(C(=O)Nc3cc(Cl)ccc32)C12CCCCC2 (stereo not given) + Cc1c(S(C)(=O)=O)c(-c2cc(F)cc(N3CCN(c4ccc(NS(=O)(=O)c5ccc(NC(CCN6CCC(C(=O)OCCCP(=O)(O)O)CC6)CSc6ccccc6)c(S(=O)(=O)C(F)(F)F)c5)cc4)CC3)c2)c(-c2ccc(Cl)cc2)n1C(C)C
IC50 (second compound 0.1 µM): > 3 µM
IC50 (second compound 0.316 µM): > 3 µM
IC50 (second compound 1 µM): > 3 µM
IC50 (second compound 3.16 µM): > 3 µM
IC50 (second compound 10 µM): > 3 µM
viability, T/C (second compound 0.1 µM, first compound 0.00949 µM): 82.5%
viability, T/C (second compound 0.1 µM, first compound 0.03 µM): 107%
viability, T/C (second compound 0.1 µM, first compound 0.0949 µM): 102%
viability, T/C (second compound 0.1 µM, first compound 0.3 µM): 90.5%
viability, T/C (second compound 0.1 µM, first compound 0.949 µM): 105%
viability, T/C (second compound 0.1 µM, first compound 3 µM): 120%
viability, T/C (second compound 0.316 µM, first compound 0.00949 µM): 100%
viability, T/C (second compound 0.316 µM, first compound 0.03 µM): 110%
viability, T/C (second compound 0.316 µM, first compound 0.0949 µM): 129%
viability, T/C (second compound 0.316 µM, first compound 0.3 µM): 105%
viability, T/C (second compound 0.316 µM, first compound 0.949 µM): 144%
viability, T/C (second compound 0.316 µM, first compound 3 µM): 146%
viability, T/C (second compound 1 µM, first compound 0.00949 µM): 116%
viability, T/C (second compound 1 µM, first compound 0.03 µM): 133%
viability, T/C (second compound 1 µM, first compound 0.0949 µM): 129%
viability, T/C (second compound 1 µM, first compound 0.3 µM): 117%
viability, T/C (second compound 1 µM, first compound 0.949 µM): 130%
viability, T/C (second compound 1 µM, first compound 3 µM): 167%
viability, T/C (second compound 3.16 µM, first compound 0.00949 µM): 152%
viability, T/C (second compound 3.16 µM, first compound 0.03 µM): 147%
viability, T/C (second compound 3.16 µM, first compound 0.0949 µM): 159%
viability, T/C (second compound 3.16 µM, first compound 0.3 µM): 162%
viability, T/C (second compound 3.16 µM, first compound 0.949 µM): 146%
viability, T/C (second compound 3.16 µM, first compound 3 µM): 163%
viability, T/C (second compound 10 µM, first compound 0.00949 µM): 192%
viability, T/C (second compound 10 µM, first compound 0.03 µM): 179%
viability, T/C (second compound 10 µM, first compound 0.0949 µM): 182%
viability, T/C (second compound 10 µM, first compound 0.3 µM): 185%
viability, T/C (second compound 10 µM, first compound 0.949 µM): 193%
viability, T/C (second compound 10 µM, first compound 3 µM): 172%

C#Cc1c(F)ccc2cc(O)cc(-c3ncc4c(N5CC6CCC(C5)N6)nc(OCC56CCCN5CC(F)C6)nc4c3F)c12 (stereo not given) + CCN1C(C(=O)NC23CCC(C(=O)O)(CC2)CC3)C(c2cccc(Cl)c2F)C2(C(=O)Nc3cc(Cl)ccc32)C12CCCCC2
IC50 (second compound 0.03 µM): > 10 µM
IC50 (second compound 0.0949 µM): > 10 µM
IC50 (second compound 0.3 µM): > 10 µM
IC50 (second compound 0.949 µM): > 10 µM
IC50 (second compound 3 µM): > 10 µM
viability, T/C (second compound 0.03 µM, first compound 0.0316 µM): 120%
viability, T/C (second compound 0.03 µM, first compound 0.1 µM): 116%
viability, T/C (second compound 0.03 µM, first compound 0.316 µM): 136%
viability, T/C (second compound 0.03 µM, first compound 1 µM): 192%
viability, T/C (second compound 0.03 µM, first compound 3.16 µM): 204%
viability, T/C (second compound 0.03 µM, first compound 10 µM): 170%
viability, T/C (second compound 0.0949 µM, first compound 0.0316 µM): 117%
viability, T/C (second compound 0.0949 µM, first compound 0.1 µM): 117%
viability, T/C (second compound 0.0949 µM, first compound 0.316 µM): 158%
viability, T/C (second compound 0.0949 µM, first compound 1 µM): 208%
viability, T/C (second compound 0.0949 µM, first compound 3.16 µM): 241%
viability, T/C (second compound 0.0949 µM, first compound 10 µM): 211%
viability, T/C (second compound 0.3 µM, first compound 0.0316 µM): 120%
viability, T/C (second compound 0.3 µM, first compound 0.1 µM): 127%
viability, T/C (second compound 0.3 µM, first compound 0.316 µM): 127%
viability, T/C (second compound 0.3 µM, first compound 1 µM): 204%
viability, T/C (second compound 0.3 µM, first compound 3.16 µM): 213%
viability, T/C (second compound 0.3 µM, first compound 10 µM): 188%
viability, T/C (second compound 0.949 µM, first compound 0.0316 µM): 116%
viability, T/C (second compound 0.949 µM, first compound 0.1 µM): 123%
viability, T/C (second compound 0.949 µM, first compound 0.316 µM): 146%
viability, T/C (second compound 0.949 µM, first compound 1 µM): 229%
viability, T/C (second compound 0.949 µM, first compound 3.16 µM): 210%
viability, T/C (second compound 0.949 µM, first compound 10 µM): 174%
viability, T/C (second compound 3 µM, first compound 0.0316 µM): 125%
viability, T/C (second compound 3 µM, first compound 0.1 µM): 156%
viability, T/C (second compound 3 µM, first compound 0.316 µM): 216%
viability, T/C (second compound 3 µM, first compound 1 µM): 218%
viability, T/C (second compound 3 µM, first compound 3.16 µM): 172%
viability, T/C (second compound 3 µM, first compound 10 µM): 154%
